According to PubChem BioAssay AID192 (DTP/NCI, 2004):
“And” between values parts separate entries of the source, which are not always exact repeats. Equal values may be shown once. Inconclusive results and toxic doses are left out. How the source made its calls: active means survival T/C of 150% or more; inactive means T/C below 125% in these data.

System: BDF1 mice, B16 melanoma ip, median survival T/C
Test: NCI In Vivo Anticancer Drug Screen. Data for tumor model B16 Melanoma (intraperitoneal) in B6D2F1 (BDF1) mice
Settings: endpoint: median survival time, higher = longer survival
How it was run: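 Each result divides a survival or tumor-size measurement in the compound-treated group by the same measurement in the vehicle group.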

[1] = dose: 100.0 mg/kg/injection, schedule: Q01DX009 (ip), vehicle: saline with Tween-80
[2] = dose: 200.0 mg/kg/injection, schedule: Q01DX009 (ip), vehicle: saline with Tween-80
[3] = dose: 12.5 mg/kg/injection, schedule: Q01DX009 (ip), vehicle: Klucel (hydroxypropylcellulose) (HPC)
[4] = dose: 25.0 mg/kg/injection, schedule: Q01DX009 (ip), vehicle: Klucel (hydroxypropylcellulose) (HPC)
[5] = dose: 100.0 mg/kg/injection, schedule: Q01DX009 (ip), vehicle: Klucel (hydroxypropylcellulose) (HPC)
[6] = dose: 200.0 mg/kg/injection, schedule: Q01DX009 (ip), vehicle: Klucel (hydroxypropylcellulose) (HPC)
[7] = dose: 400.0 mg/kg/injection, schedule: Q01DX009 (ip), vehicle: Klucel (hydroxypropylcellulose) (HPC)
[8] = dose: 3.12 mg/kg/injection, schedule: Q01DX009 (ip), vehicle: saline
[9] = dose: 6.25 mg/kg/injection, schedule: Q01DX009 (ip), vehicle: saline
[10] = dose: 12.5 mg/kg/injection, schedule: Q01DX009 (ip), vehicle: saline
[11] = dose: 25.0 mg/kg/injection, schedule: Q01DX009 (ip), vehicle: saline

Measured: T/C

COCC1OC(OC2C3=C(C(C)C)CCC3(C)/C=C3\C(CCC3(O)COC)C(C)C2O)C(O)C2OC3OC12OC3(C)C1CO1 (centres undefined)
inactive: dose: 1.5 mg/kg/injection, schedule: Q01DX009 (ip), vehicle: Klucel (hydroxypropylcellulose) (HPC) 93 % of control | dose: 3.0 mg/kg/injection, schedule: Q01DX009 (ip), vehicle: Klucel (hydroxypropylcellulose) (HPC) 89 % of control | dose: 6.0 mg/kg/injection, schedule: Q01DX009 (ip), vehicle: Klucel (hydroxypropylcellulose) (HPC) 98 % of control | dose: 12.0 mg/kg/injection, schedule: Q01DX009 (ip), vehicle: Klucel (hydroxypropylcellulose) (HPC) 91 % of control | dose: 24.0 mg/kg/injection, schedule: Q01DX009 (ip), vehicle: Klucel (hydroxypropylcellulose) (HPC) 105 % of control

O=C(O)C1(NO)CCCC1
inactive: dose: 100.0 mg/kg/injection, schedule: Q01DX009 (ip), vehicle: saline 87 % of control

NC(N)=NC(N)=Nc1ccc(S(=O)(=O)O)cc1
inactive: [1] 94 % of control | [2] 104 % of control | dose: 400.0 mg/kg/injection, schedule: Q01DX009 (ip), vehicle: saline with Tween-80 98 % of control

COc1cccc(/C=c2\[nH]c(=O)/c(=C/c3cccc(OC)c3OC)[nH]c2=O)c1OC
inactive: [3] 89 % of control | [4] 99 % of control | dose: 50.0 mg/kg/injection, schedule: Q01DX009 (ip), vehicle: Klucel (hydroxypropylcellulose) (HPC) 92 % of control and 96 % of control

CCOC(=O)c1[nH]cnc1/N=N/N(C)CCO
inactive: dose: 12.5 mg/kg/injection, schedule: Q01DX009 (ip), vehicle: carboxymethylcellulose (CMC) 104 % of control | dose: 25.0 mg/kg/injection, schedule: Q01DX009 (ip), vehicle: carboxymethylcellulose (CMC) 118 % of control | dose: 50.0 mg/kg/injection, schedule: Q01DX009 (ip), vehicle: carboxymethylcellulose (CMC) 95 % of control | dose: 100.0 mg/kg/injection, schedule: Q01DX009 (ip), vehicle: carboxymethylcellulose (CMC) 100 % of control | dose: 200.0 mg/kg/injection, schedule: Q01DX009 (ip), vehicle: carboxymethylcellulose (CMC) 113 % of control

CCOC(=O)C(=CN1CCCCC1)C(=O)OCC
inactive: [1] 99 % of control | dose: 100.0 mg/kg/injection, schedule: Q04DX003 (ip), vehicle: saline with Tween-80 95 % of control | [2] 100 % of control | dose: 200.0 mg/kg/injection, schedule: Q04DX003 (ip), vehicle: saline with Tween-80 97 % of control | dose: 400.0 mg/kg/injection, schedule: Q04DX003 (ip), vehicle: saline with Tween-80 95 % of control

CS(=O)(=O)OCC(=O)NCC(O)CNC(=O)COS(C)(=O)=O
inactive: dose: 50.0 mg/kg/injection, schedule: Q01DX009 (ip), vehicle: saline with Tween-80 109 % of control | [1] 104 % of control | [2] 115 % of control

CCC[CH2][Ge]([Cl])([Cl])[CH2]CCC
inactive: [3] 100 % of control | [4] 90 % of control

Cc1ccc(N2CSC(=S)N(c3ccc(C)cc3)C2)cc1
inactive: [5] 86 % of control and 109 % of control | [6] 86 % of control and 109 % of control | [7] 102 % of control

Clc1ccc(C(c2ccc(Cl)cc2)C(Cl)(Cl)Cl)cc1
inactive: dose: 16.0 mg/kg/injection, schedule: Q01DX009 (ip), vehicle: Klucel (hydroxypropylcellulose) (HPC) 101 % of control | dose: 32.0 mg/kg/injection, schedule: Q01DX009 (ip), vehicle: Klucel (hydroxypropylcellulose) (HPC) 92 % of control

CCCCCc1cc(O)c2c(c1)OC(C)(C)c1ccc(C)cc1-2
inactive: dose: 64.0 mg/kg/injection, schedule: Q01DX009 (ip), vehicle: saline 115 % of control | dose: 128.0 mg/kg/injection, schedule: Q01DX009 (ip), vehicle: saline 110 % of control | dose: 256.0 mg/kg/injection, schedule: Q01DX009 (ip), vehicle: saline 112 % of control | dose: 512.0 mg/kg/injection, schedule: Q01DX009 (ip), vehicle: saline 88 % of control

O=C1N=C(Oc2ccccc2)SC1=O
inactive: dose: 12.5 mg/kg/injection, schedule: Q01DX009 (ip), vehicle: saline with Tween-80 101 % of control | dose: 25.0 mg/kg/injection, schedule: Q01DX009 (ip), vehicle: saline with Tween-80 96 % of control

CN(C)CCCC1(C#N)c2ccccc2CCc2ccccc21
inactive: [8] 110 % of control | [9] 97 % of control | [10] 100 % of control | [11] 110 % of control

CC(CCOCC1CO1)OCC1CO1 (centres undefined)
inactive: dose: 100.0 mg/kg/injection, schedule: Q04DX003 (ip), vehicle: saline 100 % of control | dose: 200.0 mg/kg/injection, schedule: Q04DX003 (ip), vehicle: saline 108 % of control | dose: 400.0 mg/kg/injection, schedule: Q04DX003 (ip), vehicle: saline 110 % of control

C1CCc2nnnn2CC1
inactive: dose: 1.56 mg/kg/injection, schedule: Q04DX003 (ip), vehicle: saline 111 % of control | [8] 113 % of control | dose: 3.12 mg/kg/injection, schedule: Q04DX003 (ip), vehicle: saline 110 % of control | [9] 102 % of control | dose: 6.25 mg/kg/injection, schedule: Q04DX003 (ip), vehicle: saline 106 % of control | [10] 102 % of control | dose: 12.5 mg/kg/injection, schedule: Q04DX003 (ip), vehicle: saline 103 % of control | [11] 88 % of control | dose: 25.0 mg/kg/injection, schedule: Q04DX003 (ip), vehicle: saline 103 % of control and 111 % of control | dose: 50.0 mg/kg/injection, schedule: Q04DX003 (ip), vehicle: saline 105 % of control

Cc1ccc(CS)cc1
inactive: [5] 112 % of control | [6] 118 % of control

C=C1CCC2(C)C(O)CC3(C)C(CCC4C5(C)CCC(OC(C)=O)C(C)(C)C5CCC43C)C2C1C (centres undefined)
inactive: dose: 1.0 mg/kg/injection, schedule: Q01DX009 (ip), vehicle: other 107 % of control | dose: 2.0 mg/kg/injection, schedule: Q01DX009 (ip), vehicle: other 101 % of control | dose: 4.0 mg/kg/injection, schedule: Q01DX009 (ip), vehicle: other 102 % of control

CC(C)(C)OC(=O)CCC(NC(=O)OCc1ccccc1)C(=O)NN (centres undefined)
inactive: dose: 75.0 mg/kg/injection, schedule: Q04DX003 (ip), vehicle: Klucel (hydroxypropylcellulose) (HPC) 97 % of control | dose: 150.0 mg/kg/injection, schedule: Q04DX003 (ip), vehicle: Klucel (hydroxypropylcellulose) (HPC) 100 % of control | dose: 300.0 mg/kg/injection, schedule: Q04DX003 (ip), vehicle: Klucel (hydroxypropylcellulose) (HPC) 97 % of control

O=[N+]([O-])c1ccc2c(c1)Cc1cc(Br)ccc1-2
inactive: dose: 100.0 mg/kg/injection, schedule: Q04DX003 (ip), vehicle: Klucel (hydroxypropylcellulose) (HPC) 97 % of control | dose: 200.0 mg/kg/injection, schedule: Q04DX003 (ip), vehicle: Klucel (hydroxypropylcellulose) (HPC) 100 % of control | dose: 400.0 mg/kg/injection, schedule: Q04DX003 (ip), vehicle: Klucel (hydroxypropylcellulose) (HPC) 100 % of control

COc1ccc(Cl)cc1NC(=O)CC(C)=O
inactive: [5] 100 % of control | [6] 93 % of control | [7] 96 % of control

COc1cc(O)c2c(c1)C(=O)c1cc3c(c(O)c1C2=O)CC(OC)C(C)(O)C3=O (centres undefined)
inactive: dose: 25.0 mg/kg/injection, schedule: Q01DX009 (ip), vehicle: other 104 % of control | dose: 50.0 mg/kg/injection, schedule: Q01DX009 (ip), vehicle: other 91 % of control | dose: 100.0 mg/kg/injection, schedule: Q01DX009 (ip), vehicle: other 91 % of control

COC1CCCCC1I (centres undefined)
inactive: dose: 50.0 mg/kg/injection, schedule: Q01DX009 (ip), vehicle: alcohol 100 % of control | dose: 75.0 mg/kg/injection, schedule: Q04DX003 (ip), vehicle: alcohol 95 % of control | dose: 100.0 mg/kg/injection, schedule: Q01DX009 (ip), vehicle: alcohol 92 % of control | dose: 150.0 mg/kg/injection, schedule: Q04DX003 (ip), vehicle: alcohol 92 % of control

CC#CC#C/C=C1\OC2(CCCCO2)C(O)C1OC(=O)CC(C)C (centres undefined)
inactive: dose: 10.0 mg/kg/injection, schedule: Q01DX009 (ip), vehicle: Klucel (hydroxypropylcellulose) (HPC) 103 % of control | dose: 20.0 mg/kg/injection, schedule: Q01DX009 (ip), vehicle: Klucel (hydroxypropylcellulose) (HPC) 103 % of control | dose: 40.0 mg/kg/injection, schedule: Q01DX009 (ip), vehicle: Klucel (hydroxypropylcellulose) (HPC) 94 % of control
